# Test results: publication PMC6270570, “New Flurbiprofen Derivatives: Synthesis, Membrane Affinity and Evaluation of in Vitro Effect on β-Amyloid Levels” (Molecules, 2013)
# Read-outs that look alike come from different tables or passages of the source.
# Tests used:
# [1] = IAM-HPLC affinity for membrane phospholipids (logKIAM/W); type: physicochemical; details: IAM.PC.MG column, pH 7.0 phosphate buffer/acetonitrile, extrapolated to 100% aqueous eluent
# Experimental: n-Octanol/water partition coefficients were theoretically calculated by the program clogP for windows version 2.0 (Biobyte Corp., Claremont, CA, USA). Affinity for membrane phospholipids, so called “phospholipophilicity”, was measured by HPLC on a phospholipid stationary phase. […] liquid chromatograph (Waters-Millipore, Milford, MA, USA), equipped with a 7125 Rheodyne injection valve and a 486 UV detector (Waters) set at 246 nm, was used. The column was an IAM.PC.MG (Immobilized Artificial Membrane-PhosphatidylCholine-MethylGlycolate) (4.6 mm × 150 mm) (Regis Chemical Company, Morton Grove, IL, USA). The mobile phase was 0.01 M phosphate buffer at pH 7.0 and acetonitrile at percentages ranging from 10 to 35 percent (v/v) (from 1.0 to 4.0 mL/min). The chromatography was carried out at room temperature. All samples were dissolved in methanol (ca. 10^-3 M) and 20 μL samples were injected in the chromatograph. Chromatographic retention data are expressed as the logarithm of the capacity factor, log k, defined as: log k = log [(tr - t0)/t0] (1) where tr and t0 are the retention times of the drug and a non-retained compound (citric acid), respectively. The log k values relative to 100% aqueous eluent (logKIAM/W) were calculated by performing a polycratic method of extrapolation. Each compound was eluted with at least three different mobile phases containing acetonitrile in different percentages (φ). […] All values of log k reported are the average of at least three measurements; the 95% confidence interval never exceeded 0.04 for each log k value. Possible occurrence of retention changes due to column aging was monitored by checking the retention times of five test compounds (amlodipine, p-nitroaniline, toluene, isradipine, and ketoprofen).
# [2] = PAMPA-GI permeability (egg lecithin in dodecane); type: in vitro ADME; details: read-out: PAMPA-GI Pe
# Experimental: (§1) The following protocol was applied to measure the Pe through the artificial membrane to predict oral absorption and BBB permeation. In order to study the g.i. permeability, a 2% solution (w/v) of egg lecithin (phosphatidyl choline > 98%, PC) in dodecane was employed as an artificial membrane solution. The effective permeability of BBB was measured using phospholipid mixture from porcine polar brain lipid extract, composed by PC 12.6%, phosphatidylethanolamine (PE) 33.1%, phosphatidylserine (PS) 18.5%, phosphatidylinositol (PI) 4.1%, phospatidic acid (PA) 0.8% and 30.9% of other compounds (purchased from Avantis Polar Lipids, Alabaster, AL, USA). Each donor filtration plate well was then impregnated with 5 µL of this solution carefully, and immediately after 150 µL of phosphate buffer (pH 7.4/pH 6.5), containing co-drug 1 500 µM and iPrOH 20% as co-solvent was added. Then the drug-filled donor plate was placed into the acceptor plate that had been prefilled with the same buffer (300 µL) as acceptor solution. After plate lid was replaced, the resulting assembled donor-acceptor plates were incubated at r.t. for 2 h for PAMPA-GI and 18 h for PAMPA-BBB, following which drugs concentration in the acceptor and donor solutions were determined by HPLC [37].
# (§2) Log Pe can be calculated from the equation below: [drawing 10] (2) where Pe is the effective permeability coefficient (cm x s^−1), VD is volume of donor compartment (0.15 cm^3) and VA is volume of acceptor compartment (0.30 cm^3), A is effective filter area (0.28 cm^2), t is incubation time for the assay (s), Cacceptor is the concentration of the compound in the acceptor compartment at the completion of the assay, and Cequilibrium is the concentration of compound at theoretical equilibrium.
# [3] = PAMPA-BBB permeability (porcine polar brain lipid extract); type: in vitro ADME; details: for Papp at 18 h, 500 µM: PAMPA
# Experimental: as §1, §2
# Aβ-42 = assay: Western blotting of Aβ-42 expression in CTXTNA2 astrocytes (in vitro γ-secretase activity); type: cell-based, rat; details: 24 h
# Experimental: CTXTNA2 cell line, established from primary cultures of type 1 astrocytes from brain frontal cortex tissue of 1 day old rats, was obtained by ECACC (Salisbury, UK). Cells have been maintained in DMEM, 10% FBS at 37 °C, 5% CO2 until sub-confluence and incubated for 24 h with a DMSO solution of drug (concentrations ranging from 1 µM to 100 µM). For detection of cell viability, a Trypan blue dye exclusion test has been performed.
# Cell lysates (20 µg) have been electrophoresed and transferred to nitrocellulose membrane. Nitrocellulose membranes, blocked in 5% non-fat milk, 10 mmol/L Tris pH 7.5, 100 mmol/L NaCl, 0.1% Tween-20, have been probed with mouse APP (Millipore, Billerica, MA, USA) and Aβ (Alpha Diagnostic Intl, San Antonio, TX, USA) monoclonal antibodies (Santa Cruz Biotechnology, Santa Cruz, CA, USA), then incubated in the presence of specific enzyme conjugated IgG horseradish peroxidase. Immunoreactive bands have been detected by ECL detection system (Amersham Intl., Buckinghamshire, UK) and analysed by densitometry. Densitometric values, expressed as Integrated Optical Intensity (I.O.I.), have been estimated in a CHEMIDOC XRS system by the QuantiOne 1-D analysis software (BioRad, Richmond, CA, USA). Values obtained have been normalized basing on densitometric values of internal β tubulin. Statistical analysis has been performed using the analysis of variance (ANOVA). Results have been expressed as mean ± SD. Values of p < 0.05 have been considered statistically significant.
# APP = details: 24 h
# Experimental: For detection of cell viability, a Trypan blue dye exclusion test has been performed [33].
# Cell lysates (20 µg) have been electrophoresed and transferred to nitrocellulose membrane. […] Immunoreactive bands have been detected by ECL detection system (Amersham Intl., Buckinghamshire, UK) and analysed by densitometry. Densitometric values, expressed as Integrated Optical Intensity (I.O.I.), have been estimated in a CHEMIDOC XRS system by the QuantiOne 1-D analysis software (BioRad, Richmond, CA, USA). Values obtained have been normalized basing on densitometric values of internal β tubulin. Statistical analysis has been performed using the analysis of variance (ANOVA). Results have been expressed as mean ± SD. Values of p < 0.05 have been considered statistically significant.
# [4] = pH 7.4, 18 h of incubation, read-out: PAMPA-BBB Pe
Structure (SMILES),LogKIAM/W [1],"Papp at 2 h, 500 µM ([2]; pH 6.5, 2 h of incubation) [×10⁻⁶ cm/s]","Papp at 2 h, 500 µM ([2]; pH 7.4, 2 h of incubation) [×10⁻⁶ cm/s]","Papp at 18 h, 500 µM [3, 4] [×10⁻⁶ cm/s]",Expression of Aβ-42 (Aβ-42; 1 µM),Expression of Aβ-42 (Aβ-42; 10 µM),Expression of Aβ-42 (Aβ-42; 100 µM),Expression of APP (APP; 1 µM),Expression of APP (APP; 10 µM),Expression of APP (APP; 100 µM),"PAMPA-BBB Pe ([3]; pH 7.4, 18 h of incubation)",melting point [°C],"Papp at 18 h, 500 µM ([3]; read-out: Pe, BBB penetration) [×10⁻⁶ cm/s]","Aβ-42 production, effect in words (Aβ-42; 1 µM to 100 µM, without affecting the APP level)"
"CC(C)[C@H](O)C(=O)N[C@@H](C)C(=O)N[C@@H]1C(=O)N(C)CCc2ccccc21 [LY-450139, reference compound]",0.11,1.6,1.8,1.4,(9.4. ± 0.3) × 10^−2,(5.1 ± 0.1) × 10^−2,(5.4 ± 0.2) × 10^−2,(65.9 ± 2.3) × 10^−2,(60.0 ± 1.6) × 10^−2,(58.8 ± 2.5) × 10^−2,–,–,–,–
"C[C@H](NC(=O)Cc1ccc(-c2ccccc2)c(F)c1)C(=O)N[C@H](C(=O)OC(C)(C)C)c1ccccc1 [Compound 3, tert-butyl (2S)-({N-[(2-fluoro-1,1'-biphenyl-4-yl)acetyl]-L-alanyl}amino)(phenyl)acetate]",3.64,2.1,2,–,(8.8. ± 0.4) × 10^−2,(10.5 ± 0.4) × 10^−2,(45.8. ± 1.3) × 10^−2,(64.1 ± 2.3) × 10^−2,(72.2 ± 2.1) × 10^−2,(105 ± 3.2) × 10^−2,2.0 10^−6 cm/s,104 to 106,–,–
"C[C@H](NC(=O)[C@@H](O)c1cc(F)cc(F)c1)C(=O)N[C@@H]1C(=O)N(C)c2ccccc2-c2ccccc21 [LY-411575, reference compound]",1.85,2.3,2.5,2,(8.2 ± 0.1) × 10^−2,(6.0 ± 0.1) × 10^−2,(4.1 ± 0.2) × 10^−2,(64.0 ± 2.4) × 10^−2,(54.7 ± 2.0) × 10^−2,(57.2 ± 1.2) × 10^−2,–,–,–,–
"C[C@@H](C(=O)O)c1ccc(-c2ccccc2)c(F)c1 [R-FLU, (R)-enantiomer of flurbiprofen, reference compound]",1.82,2.4,2.1,1.6,(20.5 ± 0.7) × 10^−2,(19.1 ± 0.5) × 10^−2,(14.1 ± 0.7) × 10^−2,(60.0 ± 1.3) × 10^−2,(54.5 ± 2.3) × 10^−2,(52.1 ± 2.1) × 10^−2,–,–,≥ 2,–
"C[C@H](C(=O)O)c1ccc(-c2ccccc2)c(F)c1 [S-Flurbiprofen, reference compound]",–,–,–,–,(18.8. ± 0.6) × 10^−2,(19.0 ± 0.7) × 10^−2,(15.4 ± 0.3) × 10^−2,(60.6 ± 2.5) × 10^−2,(65.2 ± 1.8) × 10^−2,(53.2 ± 1.9) × 10^−2,–,–,–,–
"C[C@@H](C(=O)N[C@H]1C(=O)N(C)c2ccccc2-c2ccccc21)c1ccc(-c2ccccc2)c(F)c1 [Compound 4, (2R)-2-(2-Fluoro-1,1'-biphenyl-4-yl)-N-[(7R)-5-methyl-6-oxo-6,7-dihydro-5H-dibenzo[b,d]azepin-7-yl]propanamide]",3.21,–,–,–,(11.0 ± 0.4) × 10^−2,(12.1 ± 0.4) × 10^−2,(16.2 ± 0.7) × 10^−2,(51.3 ± 2.6) × 10^−2,(39.9 ± 1.6) × 10^−2,(60.1 ± 2.7) × 10^−2,–,100 to 103,≥ 4,–
"C[C@H](C(=O)N[C@H]1C(=O)N(C)c2ccccc2-c2ccccc21)c1ccc(-c2ccccc2)c(F)c1 [Compound 6, (2S)-2-(2-Fluoro-1,1'-biphenyl-4-yl)-N-[(7R)-5-methyl-6-oxo-6,7-dihydro-5H-dibenzo[b,d]azepin-7-yl]propanamide]",3.93,–,–,–,(19.0 ± 0.6) × 10^−2,(16.2 ± 0.5) × 10^−2,(13.4 ± 0.7) × 10^−2,(11.3 ± 0.4) × 10^−2,(10.4 ± 0.2) × 10^−2,(13.5 ± 0.5) × 10^−2,–,104 to 105,–,–
"C[C@H](NC(=O)Cc1cc(F)cc(F)c1)C(=O)N[C@H](C(=O)OC(C)(C)C)c1ccccc1 [DAPT, reference compound]",1.61,2.5,2.6,2.2,(8.3 ± 0.2) × 10−2,(6.4 ± 0.1) × 10−2,(5.5 ± 0.3) × 10−2,(65.4 ± 2.8) × 10−2,(62.1 ± 2.8) × 10−2,(58.3 ± 1.9) × 10−2,–,–,–,–
"C[C@@H](C(=O)N[C@@H]1C(=O)N(C)c2ccccc2-c2ccccc21)c1ccc(-c2ccccc2)c(F)c1 [Compound 5, (2R)-2-(2-Fluoro-1,1'-biphenyl-4-yl)-N-[(7S)-5-methyl-6-oxo-6,7-dihydro-5H-dibenzo[b,d]azepin-7-yl]propanamide]",3.93,–,–,–,(17.4. ± 0.3) × 10^−2,(17.1 ± 0.6) × 10^−2,(17.4. ± 0.5) × 10^−2,(41.1 ± 1.7) × 10^−2,(44.2 ± 2.1) × 10^−2,(49.2 ± 3.2) × 10^−2,–,102 to 103,–,–
"C[C@H](C(=O)N[C@@H]1C(=O)N(C)c2ccccc2-c2ccccc21)c1ccc(-c2ccccc2)c(F)c1 [Compound 7, (2S)-2-(2-Fluoro-1,1'-biphenyl-4-yl)-N-[(7S)-5-methyl-6-oxo-6,7-dihydro-5H-dibenzo[b,d]azepin-7-yl]propanamide]",3.21,–,–,–,(12.4. ± 0.1) × 10^−2,(11.1 ± 0.3) × 10^−2,(9.2 ± 0.3) × 10^−2,(9.0 ± 0.3) × 10^−2,(8.0 ± 0.3) × 10^−2,(10.1 ± 3.2) × 10^−2,–,102 to 104,≥ 4,highly effective
